Patent US12209102B2, “Heterocyclic compounds and uses thereof” (Kumquat Biosciences Inc., priority 2022, dated 2025)

Columns and labels:
K-Ras G12S = molecular target: T1, K-Ras G12S (Homo sapiens, UniProt P01116, G12S); assay: HTRF resonance energy transfer assay, K-Ras G12S / SOS1 interaction; assay type: biochemical; details: HTRF assay of Example 5; read-out: IC50 against K-Ras G12S
T1 construct: made in house; host or cells: E. coli BL21 (DE3)
Outline: (§1)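 Compounds, tested in duplicate at 10 μM down to 0.01 μM, were read after about 10 min or more by HTRF as the 665/620 nm emission ratio (337 nm excitation) to derive IC50. This ratio reports FRET between an anti-GST-Eu donor on GST-K-Ras (wild-type or mutant) and an anti-6His-XL665 acceptor on His-hSOS1. Buffer: ~5 mM HEPES pH 7.4, 150 mM NaCl, 1 mM DTT, 0.05% BSA, 0.0025% Igepal.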

K-Ras WT = molecular target: T2, K-Ras WT (Homo sapiens, UniProt P01116); assay: HTRF resonance energy transfer assay, K-Ras WT / SOS1 interaction; assay type: biochemical; details: HTRF assay of Example 5; read-out: IC50 against K-Ras WT
T2 construct: made in house; host or cells: E. coli BL21 (DE3)
Outline: as §1

GP2D cells = assay: Ras cellular assay, growth of cells with K-Ras G12D mutation (CellTiter-Glo); assay type: cell-based; details: cell growth, Example 9, G12D mutation, read-out: IC50 against GP2D cells
K-Ras G12V = molecular target: T3, K-Ras G12V (Homo sapiens, UniProt P01116, G12V); assay: HTRF resonance energy transfer assay, K-Ras G12V / SOS1 interaction; assay type: biochemical; details: HTRF assay of Example 5; read-out: IC50 against K-Ras G12V
T3 construct: made in house; host or cells: E. coli BL21 (DE3)
Outline: as §1

K-Ras G12D = molecular target: T4, K-Ras G12D (Homo sapiens, UniProt P01116, G12D); assay: HTRF resonance energy transfer assay, K-Ras G12D / SOS1 interaction; assay type: biochemical; details: HTRF assay of Example 5; read-out: IC50 against K-Ras G12D
T4 construct: made in house; host or cells: E. coli BL21 (DE3)
Outline: as §1

SW620 cells = assay: Ras cellular assay, growth of cells with K-Ras G12V mutation (CellTiter-Glo); assay type: cell-based; details: Homo sapiens, SW-620; cell growth, Example 9, G12V mutation; read-out: IC50 against SW620 cells
Outline: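 IC50 values came from a four-parameter fit of CellTiter-Glo viability, read roughly 6 days after dosing with e.g. a 10-point threefold dilution series. G12V-mutant SW620 cells (e.g. 800 per well) had been plated the previous day in RPMI-1640/10% heat-inactivated FBS, on tissue culture-treated or ultra-low attachment plates.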

A549 cells = assay: Ras cellular assay, growth of cells with K-Ras G12S mutation (CellTiter-Glo); assay type: cell-based; details: Homo sapiens, cell growth, Example 9, G12S mutation, read-out: IC50 against A549 cells
Outline: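 Growth inhibition IC50 values come from four-parameter fits of CellTiter-Glo luminescence, read about 6 days after compound addition. G12S-mutant A549 cells (e.g. 800/well, RPMI-1640 + 10% heat-inactivated FBS) were plated in tissue-culture-treated or ultra-low-attachment 384-well format. Dosing began the following day with serial dilutions, e.g. 10 points, 3-fold.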

T4 sequence (P01116 1-188 isoform P01116-2 G12D): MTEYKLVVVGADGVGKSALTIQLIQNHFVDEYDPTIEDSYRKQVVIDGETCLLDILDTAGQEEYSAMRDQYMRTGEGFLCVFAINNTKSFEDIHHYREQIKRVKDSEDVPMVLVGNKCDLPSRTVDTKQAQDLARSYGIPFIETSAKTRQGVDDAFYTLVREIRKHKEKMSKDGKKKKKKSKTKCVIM
T3 sequence (P01116 1-188 isoform P01116-2 G12V): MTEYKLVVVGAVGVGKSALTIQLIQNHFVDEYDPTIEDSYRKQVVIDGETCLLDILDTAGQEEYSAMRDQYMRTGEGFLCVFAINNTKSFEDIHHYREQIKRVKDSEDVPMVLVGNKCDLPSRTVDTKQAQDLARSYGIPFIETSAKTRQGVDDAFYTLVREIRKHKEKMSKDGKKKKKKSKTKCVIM
T2 sequence (P01116 1-188 isoform P01116-2): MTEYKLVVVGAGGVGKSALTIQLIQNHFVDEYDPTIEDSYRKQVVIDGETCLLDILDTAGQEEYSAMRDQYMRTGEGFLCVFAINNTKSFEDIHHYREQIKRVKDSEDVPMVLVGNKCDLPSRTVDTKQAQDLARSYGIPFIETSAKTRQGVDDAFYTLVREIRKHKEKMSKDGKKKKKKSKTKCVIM
T1 sequence (P01116 1-188 isoform P01116-2 G12S): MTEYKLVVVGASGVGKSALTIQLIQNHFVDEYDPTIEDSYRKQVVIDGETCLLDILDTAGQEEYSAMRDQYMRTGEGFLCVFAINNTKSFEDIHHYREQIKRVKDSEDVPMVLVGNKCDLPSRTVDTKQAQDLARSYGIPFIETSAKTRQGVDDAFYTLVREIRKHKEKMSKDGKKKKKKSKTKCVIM

| Structure (SMILES) | IC50 (K-Ras G12S) [nM] | IC50 (K-Ras WT) [nM] | IC50 (K-Ras G12V) [nM] | IC50 (K-Ras G12D) [nM] | IC50 (SW620 cells) [nM] | IC50 (A549 cells) [nM] | IC50 (GP2D cells) [nM] |
| --- | --- | --- | --- | --- | --- | --- | --- |
| N#Cc1c(N)sc2c(F)ccc(-c3c(Cl)c4c5c(nc(OC[C@@]67CCCN6C[C@H](F)C7)nc5c3F)N(C3CCN(C(=O)C5COC5)C3)CCO4)c12 (stereo partly drawn) [Compound 757, 2-amino-4-(8-chloro-10-fluoro-2-(((2R,7aS)-2-fluorotetrahydro-1H-pyrrolizin-7a(5H)-yl)methoxy)-4-(1-(oxetane-3-carbonyl)pyrrolidin-3-yl)-5,6-dihydro-4H-[1,4]oxazepino[5,6,7-de]quinazolin-9-yl)-7-fluorobenzo[b]thiophene-3-carbonitrile] | < 100 | < 100 | < 100 | < 100 | < 5000 | < 5000 | < 500 |
| CN1CCC(N2CCOc3c(Cl)c(-c4ccc(F)c5sc(N)c(C#N)c45)c(F)c4nc(OC[C@@]56CCCN5C[C@H](F)C6)nc2c34)C1=O (stereo partly drawn) [Compound 624, 2-amino-4-(8-chloro-10-fluoro-2-(((2R,7aS)-2-fluorotetrahydro-1H-pyrrolizin-7a(5H)-yl)methoxy)-4-(1-methyl-2-oxopyrrolidin-3-yl)-5,6-dihydro-4H-[1,4]oxazepino[5,6,7-de]quinazolin-9-yl)-7-fluorobenzo[b]thiophene-3-carbonitrile] | < 100 | < 100 | < 100 | < 100 | < 5000 | < 5000 | < 500 |
| N#Cc1c(N)sc2c(F)ccc(-c3c(Cl)c4c5c(nc(OC[C@@]67CCCN6C[C@H](F)C7)nc5c3F)N(C3COCC3O)CCO4)c12 (stereo partly drawn) [Compound 874, 2-amino-4-(8-chloro-10-fluoro-2-(((2R,7aS)-2-fluorotetrahydro-1H-pyrrolizin-7a(5H)-yl)methoxy)-4-(4-hydroxytetrahydrofuran-3-yl)-5,6-dihydro-4H-[1,4]oxazepino[5,6,7-de]quinazolin-9-yl)-7-fluorobenzo[b]thiophene-3-carbonitrile] | < 100 | < 100 | < 100 | < 100 | < 5000 | < 5000 | < 500 |
| N#Cc1c(N)sc2c(F)ccc(-c3c(Cl)c4c5c(nc(OC[C@@]67CCCN6C[C@H](F)C7)nc5c3F)N(C3CCN(C(=O)[C@H]5CCOC5)C3)CCO4)c12 (stereo partly drawn) [Compound 736, 2-amino-4-(8-chloro-10-fluoro-2-(((2R,7aS)-2-fluorotetrahydro-1H-pyrrolizin-7a(5H)-yl)methoxy)-4-(1-((S)-tetrahydrofuran-3-carbonyl)pyrrolidin-3-yl)-5,6-dihydro-4H-[1,4]oxazepino[5,6,7-de]quinazolin-9-yl)-7-fluorobenzo[b]thiophene-3-carbonitrile] | < 100 | < 100 | < 100 | < 100 | < 5000 | < 5000 | < 500 |
| N#Cc1c(N)sc2c(F)ccc(-c3c(Cl)c4c5c(nc(OC[C@@]67CCCN6C[C@H](F)C7)nc5c3F)N(C3CCOC3)CC(CO)O4)c12 (stereo partly drawn) [Compound 681, 2-amino-4-(8-chloro-10-fluoro-2-(((2R,7aS)-2-fluorotetrahydro-1H-pyrrolizin-7a(5H)-yl)methoxy)-6-(hydroxymethyl)-4-(tetrahydrofuran-3-yl)-5,6-dihydro-4H-[1,4]oxazepino[5,6,7-de]quinazolin-9-yl)-7-fluorobenzo[b]thiophene-3-carbonitrile] | < 100 | < 100 | < 100 | < 100 | < 5000 | < 5000 | < 500 |
| CNC(=O)C1CCC(N2CCOc3c(Cl)c(-c4ccc(F)c5sc(N)c(C#N)c45)c(F)c4nc(OC[C@@]56CCCN5C[C@H](F)C6)nc2c34)C1 (stereo partly drawn) [Compound 633, 3-(9-(2-amino-3-cyano-7-fluorobenzo[b]thiophen-4-yl)-8-chloro-10-fluoro-2-(((2R,7aS)-2-fluorotetrahydro-1H-pyrrolizin-7a(5H)-yl)methoxy)-5,6-dihydro-4H-[1,4]oxazepino[5,6,7-de]quinazolin-4-yl)-N-methylcyclopentane-1-carboxamide] | < 100 | < 100 | < 100 | < 100 | < 5000 | < 5000 | < 500 |

Continued, in another order:

| IC50 (K-Ras G12S) [nM] | IC50 (K-Ras WT) [nM] | IC50 (K-Ras G12V) [nM] | IC50 (K-Ras G12D) [nM] | IC50 (SW620 cells) [nM] | IC50 (A549 cells) [nM] | Structure (SMILES) | IC50 (GP2D cells) [nM] |
| --- | --- | --- | --- | --- | --- | --- | --- |
| < 100 | < 100 | < 100 | < 100 | < 5000 | < 5000 | N#Cc1c(N)sc2c(F)ccc(-c3c(Cl)c4c5c(nc(OC[C@@]67CCCN6C[C@H](F)C7)nc5c3F)N(C3CCn5nccc5C3)CCO4)c12 (stereo partly drawn) [Compound 893, 2-amino-4-(8-chloro-10-fluoro-2-(((2R,7aS)-2-fluorotetrahydro-1H-pyrrolizin-7a(5H)-yl)methoxy)-4-(4,5,6,7-tetrahydropyrazolo[1,5-a]pyridin-5-yl)-5,6-dihydro-4H-[1,4]oxazepino[5,6,7-de]quinazolin-9-yl)-7-fluorobenzo[b]thiophene-3-carbonitrile] | < 500 |
| < 100 | < 100 | < 100 | < 100 | < 5000 | < 5000 | N#Cc1c(N)sc2c(F)ccc(-c3c(Cl)c4c5c(nc(OC[C@@]67CCCN6C[C@H](F)C7)nc5c3F)N([C@H]3CCN(C=O)C3)CCO4)c12 [Compound 1095, 2-amino-4-(8-chloro-10-fluoro-2-(((2R,7aS)-2-fluorotetrahydro-1H-pyrrolizin-7a(5H)-yl)methoxy)-4-((S)-1-formylpyrrolidin-3-yl)-5,6-dihydro-4H-[1,4]oxazepino[5,6,7-de]quinazolin-9-yl)-7-fluorobenzo[b]thiophene-3-carbonitrile] | < 500 |
| < 100 | < 100 | < 100 | < 100 | < 5000 | < 5000 | N#Cc1c(N)sc2c(F)ccc(-c3c(Cl)c4c5c(nc(OC[C@@]67CCCN6C[C@H](F)C7)nc5c3F)N(C3CCN(C(=O)C5C6COCC65)C3)CCO4)c12 (stereo partly drawn) [Compound 916, 4-(4-(1-(3-oxabicyclo[3.1.0]hexane-6-carbonyl)pyrrolidin-3-yl)-8-chloro-10-fluoro-2-(((2R,7aS)-2-fluorotetrahydro-1H-pyrrolizin-7a(5H)-yl)methoxy)-5,6-dihydro-4H-[1,4]oxazepino[5,6,7-de]quinazolin-9-yl)-2-amino-7-fluorobenzo[b]thiophene-3-carbonitrile] | < 500 |
| < 100 | < 100 | < 100 | < 100 | < 5000 | < 5000 | N#Cc1c(N)sc2c(F)ccc(-c3c(Cl)c4c5c(nc(OC[C@@]67CCCN6C[C@H](F)C7)nc5c3F)N(C3CCN(C(=O)[C@@H]5CCOC5)C3)CCO4)c12 (stereo partly drawn) [Compound 960, 2-amino-4-(8-chloro-10-fluoro-2-(((2R,7aS)-2-fluorotetrahydro-1H-pyrrolizin-7a(5H)-yl)methoxy)-4-(1-((R)-tetrahydrofuran-3-carbonyl)pyrrolidin-3-yl)-5,6-dihydro-4H-[1,4]oxazepino[5,6,7-de]quinazolin-9-yl)-7-fluorobenzo[b]thiophene-3-carbonitrile] | < 500 |
| < 100 | < 100 | < 100 | < 100 | < 5000 | < 5000 | CN(C)C1(CN2CCOc3c(Cl)c(-c4ccc(F)c5sc(N)c(C#N)c45)c(F)c4nc(OC[C@@]56CCCN5C[C@H](F)C6)nc2c34)CCCC1 [Compound 1062, 2-amino-4-(8-chloro-4-((1-(dimethylamino)cyclopentyl)methyl)-10-fluoro-2-(((2R,7aS)-2-fluorotetrahydro-1H-pyrrolizin-7a(5H)-yl)methoxy)-5,6-dihydro-4H-[1,4]oxazepino[5,6,7-de]quinazolin-9-yl)-7-fluorobenzo[b]thiophene-3-carbonitrile] | < 500 |
| < 100 | < 100 | < 100 | < 100 | < 5000 | < 5000 | CC(O)C1COc2c(Cl)c(-c3ccc(F)c4sc(N)c(C#N)c34)c(F)c3nc(OC[C@@]45CCCN4C[C@H](F)C5)nc(c23)N1CC(F)F (single isomer, unassigned) [Compound 899] | < 500 |
